According to paper PMC9506420, “Biological Evaluation of 3-Azaspiro[Bicyclo[3.1.0]Hexane-2,5′-Pyrimidines] as Potential Antitumor Agents” (International Journal of Molecular Sciences, 2022):
Where “and” joins values, the source holds several entries; their conditions need not be identical. Equal entries are not always repeated. Where two headings read alike, the source gives them in different places.

Experiments:
[1] = system: African green monkey kidney epithelial (Vero) cell line; experiment: MTS antiproliferative (cytotoxicity) assay, Vero (reference); type: cell-based; details: Chlorocebus sabaeus, Vero
Description: (§1) The cytotoxicity of synthesized 3-azaspiro[bicyclo[3.1.0]hexane-2,5′-pyrimidines] 4 against human erythroleukemia (K562), cervical carcinoma (HeLa), and T lymphocyte (Jurkat), as well as mouse colon carcinoma (CT26) and African green monkey kidney epithelial (Vero) cell lines as reference, was evaluated in vitro by the standard MTS assay for 24 and 72 h.
(§2) All the cell lines (human cervical carcinoma (HeLa), erythroleukemia (K-562), and T lymphocyte (Jurkat) as well as mouse colon carcinoma (CT26) and African green monkey kidney epithelial (Vero)) were obtained from the cell repository “Vertebrate cell culture collection” (supported by the Ministry of Science and Higher Education of the Russian Federation, agreement №075-15-2021-683, Institute of Cytology, Russian Academy of Sciences, Saint Petersburg, Russia). HeLa, Jurkat, and Vero cells were cultured in DMEM (HyClone, South Logan, UT, USA) supplemented with 10% (v/v) fetal bovine serum (Hyclone, GE Healthcare Life Sciences, Logan, UT, USA), and gentamicin (Sigma-Aldrich, St. Louis, MO, USA) at 37 °C in a humidified atmosphere with 5% CO2. K-562 and CT26 cells were grown at RPMI medium (Hyclone, GE Healthcare Life Sciences, Logan, UT, USA), with the same supplements and conditions.
(§3) To evaluate the in vitro toxicity of compounds synthesized, cells were seeded into 96-well plates at a density of 5 × 10^3 cells per well. On the next day, tested compounds were added to the wells at concentrations ranging from […], followed by incubation for 1 and 3 days. Cell proliferation was determined by adding 20 μL of MTS reagent (BioVision, Milpitas, CA, USA) stock solution per well. Each plate was incubated for 2 h at 37 °C in a humidified, 5% CO2 atmosphere. The plates were then read at 495 nm using plate spectrophotometer (Multiskan GO, Thermo Fisher Scientific, Waltham, MA, USA). All samples were measured in triplicates.

[2] = system: CT26 cells; experiment: Annexin V-FITC/DAPI cell death analysis, CT26; type: cell-based, mouse; details: CT26, 10 μg/mL, 72 h; for Necrotic Cells, %: control 0.0 ± 0.0; for Late Apoptotic Cells, %: control 0.9 ± 0.4; for Early Apoptotic Cells, %: control 10.5 ± 0.7; for Live Cells, %: control 88.5 ± 1.1
Description: (§4) The results of cell death detection after the exposure of the HeLa and CT26 cell lines to spiro-fused cycloadducts 4c–i at a dose of 10 μg/mL for 72 h, using Annexin V-FITC/DAPI staining, are shown in Figure 6 and Figure 7, respectively.
(§5) Cells were seeded in 24-well plates, 5 × 10^4 cells per well. After 24 h incubation, cells were treated with compounds 4c–i for 72 h. Then, cells were washed, harvested by trypsinisation, stained with Annexin V-FITC ([…]) and DAPI (Thermo Fisher Scientific, Waltham, MA, USA), in accordance with the protocol of the manufacturer, and analyzed by flow cytometry. The proapoptotic effect of azaspiro[bicyclo[3.1.0]hexane-2,5′-pyrimidines] 4c–i was evaluated by an Annexin V-FITC/DAPI (AV/DAPI) dual-staining assay to examine the occurrence of phosphatidylserine externalization, which facilitated the detection of live cells (lower-left quadrant; AV−/DAPI−), early apoptotic cells (upper-left quadrant; AV+/DAPI−), late apoptotic cells (upper-right quadrant; AV+/DAPI+), and necrotic cells (lower-right quadrant; AV−/DAPI+).

[3] = system: human erythroleukemia (K562) cell line; experiment: MTS antiproliferative (cytotoxicity) assay, K562; type: cell-based; details: for IC50: Homo sapiens; for SI (selectivity index), K562: Vero as reference cell line
Description: as §1, §2, §3

[4] = system: HeLa cells; experiment: Cell cycle distribution by flow cytometry (propidium iodide), HeLa; type: cell-based, human; details: for SubG1 (%) / G2/M (%) / S (%) / G0/G1 (%): HeLa, 10 μg/mL, 24 h; for SubG1 (%): control 2.3 ± 0.4; for G2/M (%): control 12.2 ± 1.3; for S (%): control 12.5 ± 1.7; for G0/G1 (%): control 73.1 ± 2.6
Description: (§6) One of the indicators of the influence of biologically active products on the cells is the changed distribution of cells during different stages of the cell cycle. In this work, recently synthesized compounds were tested using flow cytometry for their effect on the distribution of cells in the cell cycle (G0/G1, G2/M, and S). Figure 8, Figure 9 and Figure 10 and Table 3 show the typical data after processing the results from three replicates of each experiment.
(§7) The distribution of HeLa and CT26 cells in the G0/G1-, S-, and G2/M-phases of the cell cycle was obtained by quantification of DNA content in propidium-iodide-stained cells using flow cytometry. Briefly, cells were seeded in 24-well plates at a density of 5 × 10^4 cells per well. After 24 h incubation, cells were exposed to 10 μg/mL of compounds 4c–i (the structure is provided in Scheme 1) for 24 h. The effects of compounds 4d, 4e, 4g, 4h were additionally tested at concentrations of 2 and 5 μg/mL. After incubation with drugs, the cells were detached by exposure to trypsin-EDTA for 5 min at 37 °C and then collected by pipetting. This was followed by treatment with 0.2 mg/mL saponin (Fluka, Waltham, MA, USA), 0.25 mg/mL RNase (Sigma-Aldrich, St. Louis, MO, USA), and 0.05 mg/mL propidium iodide (Invitrogen, Carlsbad, CA, USA). After washing, the samples were analyzed by standard flow cytometer (BD FACSCanto II, Becton Dickinson, San Jose, CA, USA). Then, 10,000 events were acquired for the sample. Data processing was performed using BD FACSDiva 9.0 software.

[5] = system: human cervical carcinoma (HeLa) cell line; experiment: MTS antiproliferative (cytotoxicity) assay, HeLa; type: cell-based; details: HeLa; for SI (selectivity index), HeLa: Vero as reference cell line; for IC50: Homo sapiens
Description: as §1, §2, §3

[6] = system: mouse colon carcinoma (CT26) cell line; experiment: MTS antiproliferative (cytotoxicity) assay, CT26; type: cell-based; details: for SI (selectivity index), CT26: Vero as reference cell line; for IC50: Mus musculus
Description: as §1, §2, §3

[7] = system: HeLa cells; experiment: Annexin V-FITC/DAPI cell death analysis, HeLa; type: cell-based, human; details: 10 μg/mL, 72 h; for Necrotic Cells, %: control 0.5 ± 0.3; for Early Apoptotic Cells, %: control 4.5 ± 0.7; for Late Apoptotic Cells, %: control 5.9 ± 0.4; for Live Cells, %: control 89.0 ± 0.7
Description: as §4, §5

[8] = system: CT26 cells; experiment: Cell cycle distribution by flow cytometry (propidium iodide), CT26; type: cell-based, mouse; details: for SubG1 (%) / G2/M (%) / S (%) / G0/G1 (%): CT26, 10 μg/mL, 24 h; for SubG1 (%): control 3.6 ± 0.6; for G2/M (%): control 12.3 ± 0.9; for S (%): control 40.1 ± 1.5; for G0/G1 (%): control 44.0 ± 1.7; for cytostatic effect (cell cycle), CT26: CT26 cell line
Description: as §6, §7

[9] = 24 h, read-out: IC50, Vero, 24 h
[10] = 72 h, read-out: IC50, Vero, 72 h
[11] = K562, 24 h, read-out: IC50, K562, 24 h
[12] = K562, 72 h, read-out: IC50, K562, 72 h
[13] = 24 h, read-out: IC50, HeLa, 24 h
[14] = 72 h, read-out: IC50, HeLa, 72 h
[15] = CT26, 24 h, read-out: IC50, CT26, 24 h
[16] = CT26, 72 h, read-out: IC50, CT26, 72 h

Row | SMILES | IC50 [1, 9] [µM] | IC50 [1, 10] [µM] | Necrotic Cells, % [2] [%] | Late Apoptotic Cells, % [2] [%] | Early Apoptotic Cells, % [2] [%] | Live Cells, % [2] [%] | IC50 [3, 11] [µM] | IC50 [3, 12] [µM] | SI (selectivity index), K562 [3] | SubG1 (%) [4] [%] | G2/M (%) [4] [%] | S (%) [4] [%] | G0/G1 (%) [4] [%] | SI (selectivity index), HeLa [5] | IC50 [5, 13] [µM] | IC50 [5, 14] [µM] | SI (selectivity index), CT26 [6] | IC50 [6, 15] [µM] | IC50 [6, 16] [µM] | Necrotic Cells, % [7] [%] | further results
1 | CCCCCC[C@@H]1NC2(C(=O)NC(=O)NC2=O)[C@]2(c3ccccc3)[C@@H](c3ccccc3)[C@]12c1ccccc1 [Compound 4g] | 33 ± 6 | 14 ± 2 | 0.3 ± 0.1 | 10.0 ± 0.3 | 5.5 ± 0.1 | 84.2 ± 0.3 | 19 ± 2 | 10 ± 2 | 1.4 | 39.5 ± 5.0 | 5.3 ± 0.7 | 13.3 ± 0.8 | 41.8 ± 3.0 | 1.1 | 15 ± 2 | 13 ± 2 | 1.2 | 22 ± 2 | 12 ± 2 | 6.3 ± 2.8 | cytostatic effect (cell cycle), HeLa ([4]; HeLa cell line): strongest cytostatic effect; Early Apoptotic Cells, % [7]: 38.5 ± 1.9 %; Late Apoptotic Cells, % [7]: 38.0 ± 6.9 %; Live Cells, % [7]: 17.1% and 17.1 ± 3.5 %; SubG1 (%) [8]: 1.9 ± 0.5 %; G2/M (%) [8]: 19.4 ± 4.7 %; S (%) [8]: 17.0 ± 4.3 %; G0/G1 (%) [8]: 61.7 ± 9.4 %
2 | CSCC[C@@H]1NC2(C(=O)NC(=O)NC2=O)[C@]2(c3ccccc3)[C@@H](c3ccccc3)[C@]12c1ccccc1 [Compound 4h] | 31 ± 4 | 22 ± 4 | 0.9 ± 0.3 | 24.0 ± 0.7 | 4.8 ± 0.5 | 70.3 ± 0.6 | 20 ± 4 | 10 ± 2 | 2.2 | 9.9 ± 7.8 | 12.6 ± 0.8 | 13.9 ± 1.8 | 63.6 ± 6.8 | 1.0 | 28 ± 2 | 24 ± 6 | 1.4 | 22 ± 2 | 16 ± 2 | 1.9 ± 0.2 | Early Apoptotic Cells, % [7]: 9.8 ± 1.0 %; Late Apoptotic Cells, % [7]: 15.3 ± 0.5 %; Live Cells, % [7]: 72.2% and 72.2 ± 0.4 %; SubG1 (%) [8]: 10.8 ± 2.3 %; G2/M (%) [8]: 18.9 ± 6.8 %; S (%) [8]: 32.0 ± 0.6 %; G0/G1 (%) [8]: 38.3 ± 7.9 %; cytostatic effect (cell cycle), CT26 [8]: best effect
3 | O=C1NC(=O)C2(N[C@@H](c3ccccc3)[C@@]3(c4ccccc4)[C@H](c4ccccc4)[C@@]23c2ccccc2)C(=O)N1 [Compound 4i] | 97 ± 12 | 23 ± 4 | 0.4 ± 0.1 | 19.5 ± 0.5 | 4.0 ± 0.1 | 76.2 ± 0.3 | 26 ± 4 | 8 ± 4 | 2.9 | 20.1 ± 1.3 | 9.9 ± 0.8 | 18.1 ± 2.4 | 51.8 ± 4.0 | 2.0 | 10 ± 2 | 12 ± 6 | 2.0 | 16 ± 2 | 12 ± 2 | 2.1 ± 0.9 | Early Apoptotic Cells, % [7]: 12.6 ± 0.8 %; Late Apoptotic Cells, % [7]: 17.3 ± 1.4 %; Live Cells, % [7]: 67.9% and 67.9 ± 2.4 %; SubG1 (%) [8]: 7.2 ± 2.2 %; G2/M (%) [8]: 22.4 ± 1.7 %; S (%) [8]: 37.2 ± 0.2 %; G0/G1 (%) [8]: 33.2 ± 0.6 %; cytostatic effect (cell cycle), CT26 [8]: best effect
